Reference: patent US6448228B1, “Dipeptide compounds having a high fungicidal activity and their agronomic use” (Isagro Ricerca S.r.l., priority 1998, dated 2002)
Read-outs that look alike come from different tables or passages of the source.

System: Plasmopara viticola
Assay: Fungicidal effectiveness against Peronospora (Plasmopara viticola) in preventive leaf application on vines
Assay type: in vivo
Conditions: 168 h, read-out: Effectiveness expressed as leaf diffusion control % of the disease with respect to a non-treated reference
Description: Determination of the Fungicidal Effectiveness Against Peronospora (Plasmapara viticola) of Compounds Having Formula (I) and (II) in Preventive Leaf Application
Cultivar Dolcetto vine leaves, grown in vases in a conditioned environment (20±1° C.), 70% relative humidity), are treated by spraying both sides of the leaves with compounds 1-7 dispersed in a hydroacetone solution at 20% by volume of acetone.
After remaining 24 hours in a conditioned environment, the plants are sprayed on both sides of the leaf with an aqueous suspension of conidia of Plasmopara viticola (200,000 conidia per cm^3).
The plants are kept in a humidity saturated environment, at 21° C., for the incubation period of the fungus and, at the end of this period (7 days), the fungicidal activity is evaluated according to an evaluation percentage scale from 100 (healthy plant) to 0 (completely infected plant).

[1] = Dose 0.45 g/hl, preventive leaf application on Dolcetto vines, inoculation 24 hours after treatment, evaluation after 7 days, scale 100 (healthy plant) to 0 (completely infected plant)
[2] = Dose 1.8 g/hl, preventive leaf application on Dolcetto vines, inoculation 24 hours after treatment, evaluation after 7 days, scale 100 (healthy plant) to 0 (completely infected plant)
[3] = Dose 7.5 g/hl, preventive leaf application on Dolcetto vines, inoculation 24 hours after treatment, evaluation after 7 days, scale 100 (healthy plant) to 0 (completely infected plant)
[4] = Dose 30 g/hl, preventive leaf application on Dolcetto vines, inoculation 24 hours after treatment, evaluation after 7 days, scale 100 (healthy plant) to 0 (completely infected plant)

Compound COC(=O)CC(NC(=O)[C@@H](NC(=O)OC(C)C)C(C)C)c1ccc(Cl)cc1 (mixture of isomers) [Compound 1, methyl (±)RS-[3-(N-isopropoxy-carbonyl-S-valinyl)amino]-3-(4-chlorophenyl)propanoate] has a pest or weed control at 0.45 g/hl [1] of 80%, a pest or weed control at 1.8 g/hl [2] of 100% and a pest or weed control at 7.5 g/hl [3] of 100%. For the same compound, the pest or weed control at 30 g/hl [4] was 100%.
COC(=O)C[C@@H](NC(=O)[C@@H](NC(=O)OC(C)C)C(C)C)c1ccc(Cl)cc1 (racemic) [Compound 2, methyl (±)R-[3-(N-isopropoxycarbonyl-S-valinyl)amino]-3-(4-chlorophenyl)propanoate] showed a pest or weed control at 0.45 g/hl [1] of 100%, a pest or weed control at 1.8 g/hl [2] of 100% and a pest or weed control at 7.5 g/hl [3] of 100%. For the same compound, the pest or weed control at 30 g/hl [4] was 100%.
Work on COC(=O)CC(NC(=O)[C@@H](NC(=O)OC(C)C)C(C)C)c1nc2ccccc2s1 (mixture of isomers) [Compound 8, methyl (±)RS-[3-(N-isopropoxycarbonyl-S-valinyl)amino]-3-(benzothiazol-2-yl)propanoate] yielded a pest or weed control at 0.45 g/hl [1] of 70%, a pest or weed control at 1.8 g/hl [2] of 92% and a pest or weed control at 7.5 g/hl [3] of 100%. The pest or weed control at 30 g/hl [4] was 100%.
With COC(=O)CC(NC(=O)[C@@H](NC(=O)OC(C)C)C(C)C)c1nc2cc(Cl)ccc2s1 (mixture of isomers) [Compound 9, methyl (±)RS-[3-(N-isopropoxycarbonyl-S-valinyl)amino]-3-(5-chlorobenzothiazol-2-yl)propanoate] the pest or weed control at 0.45 g/hl [1] was 90%, the pest or weed control at 1.8 g/hl [2] was 100% and the pest or weed control at 7.5 g/hl [3] was 100%. The pest or weed control at 30 g/hl [4] was 100%.
For COC(=O)C[C@H](NC(=O)[C@@H](NC(=O)OC(C)C)C(C)C)c1ccc(Cl)cc1 [Compound 3, methyl (−)S-[3-(N-isopropoxycarbonyl-S-valinyl)amino]-3-(4-chlorophenyl)propanoate], the pest or weed control at 0.45 g/hl [1] was 65%, the pest or weed control at 1.8 g/hl [2] was 85% and the pest or weed control at 7.5 g/hl [3] was 100%. The pest or weed control at 30 g/hl [4] was 100%.
With COC(=O)CC(NC(=O)[C@@H](NC(=O)OC(C)C)C(C)C)c1ccc(C)cc1 (stereo partly shown) [Compound 4, methyl RS-[3-(N-isopropoxycarbonyl-S-valinyl)amino]-3-(4-methylphenyl)propanoate] the pest or weed control at 0.45 g/hl [1] was 75%, the pest or weed control at 1.8 g/hl [2] was 100% and the pest or weed control at 7.5 g/hl [3] was 100%. The pest or weed control at 30 g/hl [4] was 100%.
For CCc1ccc(C(CC(=O)OC)NC(=O)[C@@H](NC(=O)Oc2ccccc2)C(C)C)cc1 (stereo partly shown) [Compound 5, methyl RS-[3-(N-phenoxycarbonyl-S-valinyl)amino]-3-(4-ethylphenyl)propanoate], the pest or weed control at 0.45 g/hl was 70%, the pest or weed control at 1.8 g/hl was 90% and the pest or weed control at 7.5 g/hl was 100%. For the same compound, the pest or weed control at 30 g/hl was 100%.
For COC(=O)CC(NC(=O)[C@@H](NC(=O)OC(C)C)C(C)C)c1ccc(OC)cc1 (stereo partly shown) [Compound 6, methyl RS-[3-(N-isopropoxycarbonyl-S-valinyl)amino]-3-(4-methoxyphenyl)propanoate], the pest or weed control at 0.45 g/hl [1] was 65%, the pest or weed control at 1.8 g/hl [2] was 92% and the pest or weed control at 7.5 g/hl [3] was 100%. It also gave a pest or weed control at 30 g/hl [4] of 100%.
In the case of COC(=O)CC(NC(=O)[C@@H](NC(=O)OC(C)C)C(C)C)c1ccc(C#N)cc1 (stereo partly shown) [Compound 7, methyl RS-[3-(N-isopropoxycarbonyl-S-valinyl)amino]-3-(4-cyanophenyl)propanoate], the pest or weed control at 0.45 g/hl [1] is reported as 67%, the pest or weed control at 1.8 g/hl [2] is reported as 90% and the pest or weed control at 30 g/hl [4] is reported as 100%.
Work on COC(=O)CC(NC(=O)[C@@H](NC(=O)OC(C)(C)C)C(C)C)c1ccccc1 (stereo partly shown) [Reference 1, reference compound] yielded a pest or weed control at 0.45 g/hl [1] of 0%, a pest or weed control at 1.8 g/hl [2] of 20% and a pest or weed control at 7.5 g/hl [3] of 90%. For the same compound, the pest or weed control at 30 g/hl [4] was 100%.
COC(=O)CC(NC(=O)[C@@H](NC(=O)OC(C)(C)C)C(C)C)c1ccc(Cl)cc1 (stereo partly shown) [Reference 2, reference compound] gave a pest or weed control at 0.45 g/hl [1] of 30%, a pest or weed control at 1.8 g/hl [2] of 65% and a pest or weed control at 7.5 g/hl [3] of 88%. It also gave a pest or weed control at 30 g/hl [4] of 100%.
In the case of COC(=O)CC(NC(=O)[C@@H](NC(=O)OC(C)C)C(C)C)c1ccccc1 (stereo partly shown) [Reference 3, reference compound], the pest or weed control at 0.45 g/hl [1] is reported as 10%, the pest or weed control at 1.8 g/hl [2] is reported as 55% and the pest or weed control at 7.5 g/hl [3] is reported as 91%. It also gave a pest or weed control at 30 g/hl [4] of 100%.
COC(=O)C(C)(C)C(NC(=O)[C@@H](NC(=O)OC(C)C)C(C)C)c1ccccc1 (stereo partly shown) [Reference 4, reference compound] showed a pest or weed control at 0.45 g/hl [1] of 15%, a pest or weed control at 1.8 g/hl [2] of 55% and a pest or weed control at 7.5 g/hl [3] of 75%. It also gave a pest or weed control at 30 g/hl [4] of 90%.
CC(C)OC(=O)CC(NC(=O)[C@@H](NC(=O)OC(C)C)C(C)C)c1ccccc1 (stereo partly shown) [Reference 5, reference compound] showed a pest or weed control at 0.45 g/hl [1] of 0%, a pest or weed control at 1.8 g/hl [2] of 15% and a pest or weed control at 7.5 g/hl [3] of 75%. The pest or weed control at 30 g/hl [4] was 96%.
